Experimental data taken from ChEMBL document CHEMBL4422610, “HDAC as onco target: Reviewing the synthetic approaches with SAR study of their inhibitors” (Eur J Med Chem, 2018).
Values belong to the compound of their own block, whether it stands above or below them.

Assays:
Histone deacetylase 1 [1] = target: T1, Histone deacetylase 1 (Homo sapiens, UniProt Q13547); assay: Inhibition of recombinant human FLAG/His-tagged HDAC1 expressed in baculovirus expression system using Boc-l-Lys(Ac)-AMC as substrate preincubated up to 3 hrs and measured after 35 mins by fluorescence assay
T1 sequence (Q13547 whole entry, the tested form may be a part): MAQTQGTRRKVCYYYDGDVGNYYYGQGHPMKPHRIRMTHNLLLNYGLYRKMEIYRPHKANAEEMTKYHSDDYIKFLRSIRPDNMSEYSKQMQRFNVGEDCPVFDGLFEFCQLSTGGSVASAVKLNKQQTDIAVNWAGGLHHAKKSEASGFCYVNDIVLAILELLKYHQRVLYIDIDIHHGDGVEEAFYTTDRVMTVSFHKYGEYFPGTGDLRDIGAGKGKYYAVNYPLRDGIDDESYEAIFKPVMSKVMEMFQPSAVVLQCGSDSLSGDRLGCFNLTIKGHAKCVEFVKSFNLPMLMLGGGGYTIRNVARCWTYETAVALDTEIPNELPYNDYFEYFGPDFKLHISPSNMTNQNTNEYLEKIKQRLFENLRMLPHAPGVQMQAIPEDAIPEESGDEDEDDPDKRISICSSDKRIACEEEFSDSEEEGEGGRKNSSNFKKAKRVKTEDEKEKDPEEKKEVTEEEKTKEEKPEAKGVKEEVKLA

[2] = target: Histone deacetylase 3/Nuclear receptor corepressor 2 (HDAC3/NCoR2) (Homo sapiens) (UniProt O15379+Q9Y618); assay: Inhibition of human recombinant full length C-terminal His-tagged HDAC3 (1 to 428 residues)/N-terminal GST-tagged NCOR2 (395 to 489 residues) expressed in insect cells using Boc-l-Lys(Ac)-AMC as substrate preincubated up to 3 hrs and measured after 35 mins by fluorescence assay
Histone deacetylase 1 [3] = target: T1, Histone deacetylase 1; assay: Inhibition of HDAC1 (unknown origin) using (FAM)-labeled acetylated peptide as substrate measured after 17 hrs by fluorescence assay
Histone deacetylase 2 = Histone deacetylase 2 (Homo sapiens, UniProt Q92769)
Histone deacetylase 2, sequence (Q92769 whole entry): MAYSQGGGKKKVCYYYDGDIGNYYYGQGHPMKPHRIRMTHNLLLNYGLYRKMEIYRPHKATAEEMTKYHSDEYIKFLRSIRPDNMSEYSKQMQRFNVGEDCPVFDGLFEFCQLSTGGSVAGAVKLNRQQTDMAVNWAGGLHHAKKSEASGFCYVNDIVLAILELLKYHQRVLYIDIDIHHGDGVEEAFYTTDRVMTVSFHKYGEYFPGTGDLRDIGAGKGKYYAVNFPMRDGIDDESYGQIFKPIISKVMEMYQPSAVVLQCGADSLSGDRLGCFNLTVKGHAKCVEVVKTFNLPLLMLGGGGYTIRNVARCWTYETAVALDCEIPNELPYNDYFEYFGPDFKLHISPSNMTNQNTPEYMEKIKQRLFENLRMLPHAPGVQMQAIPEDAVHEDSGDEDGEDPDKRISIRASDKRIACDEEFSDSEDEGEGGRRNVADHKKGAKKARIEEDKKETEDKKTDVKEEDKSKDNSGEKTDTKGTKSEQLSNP

Histone deacetylase 8 = target: T2, Histone deacetylase 8 (Homo sapiens, UniProt Q9BY41); assay: Inhibition of HDAC8 (unknown origin) using (FAM)-labeled acetylated peptide as substrate measured after 17 hrs by fluorescence assay
T2 sequence (Q9BY41 whole entry): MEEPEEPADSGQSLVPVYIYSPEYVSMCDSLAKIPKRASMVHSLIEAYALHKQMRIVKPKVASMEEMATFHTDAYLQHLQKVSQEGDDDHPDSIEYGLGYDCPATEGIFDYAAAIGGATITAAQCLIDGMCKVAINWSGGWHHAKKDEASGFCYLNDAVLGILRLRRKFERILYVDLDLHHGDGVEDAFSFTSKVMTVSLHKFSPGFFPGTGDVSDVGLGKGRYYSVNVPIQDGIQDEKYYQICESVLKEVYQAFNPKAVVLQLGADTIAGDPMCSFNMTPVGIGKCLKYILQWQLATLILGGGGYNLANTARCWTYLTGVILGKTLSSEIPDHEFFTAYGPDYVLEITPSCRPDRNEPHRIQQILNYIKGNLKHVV

[4] = target: T3, Polyamine deacetylase HDAC10 (Homo sapiens, UniProt Q969S8); assay: Inhibition of HDAC10 (unknown origin) using (FAM)-labeled acetylated peptide as substrate measured after 17 hrs by fluorescence assay
T3 sequence (Q969S8 whole entry): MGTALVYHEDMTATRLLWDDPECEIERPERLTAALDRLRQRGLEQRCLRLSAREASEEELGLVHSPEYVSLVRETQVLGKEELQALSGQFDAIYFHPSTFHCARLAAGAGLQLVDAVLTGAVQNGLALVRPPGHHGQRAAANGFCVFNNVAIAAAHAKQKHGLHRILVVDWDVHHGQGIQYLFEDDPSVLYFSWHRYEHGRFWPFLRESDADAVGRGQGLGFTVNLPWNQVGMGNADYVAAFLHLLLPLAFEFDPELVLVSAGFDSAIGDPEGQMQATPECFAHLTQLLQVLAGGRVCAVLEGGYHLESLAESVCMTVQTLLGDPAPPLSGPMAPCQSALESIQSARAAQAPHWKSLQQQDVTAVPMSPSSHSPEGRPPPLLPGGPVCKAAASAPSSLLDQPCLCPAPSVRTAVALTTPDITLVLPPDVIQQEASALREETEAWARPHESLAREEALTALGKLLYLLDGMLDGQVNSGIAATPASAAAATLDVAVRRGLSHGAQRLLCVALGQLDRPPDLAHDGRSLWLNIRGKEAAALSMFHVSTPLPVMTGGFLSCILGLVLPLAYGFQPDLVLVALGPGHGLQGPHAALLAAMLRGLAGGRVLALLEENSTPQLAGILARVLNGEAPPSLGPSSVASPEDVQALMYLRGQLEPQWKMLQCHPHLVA

[5] = target: T4, Protein deacetylase HDAC6 (Homo sapiens, UniProt Q9UBN7); assay: Inhibition of HDAC6 (unknown origin) using (FAM)-labeled acetylated peptide as substrate measured after 17 hrs by fluorescence assay
T4 sequence (Q9UBN7 whole entry): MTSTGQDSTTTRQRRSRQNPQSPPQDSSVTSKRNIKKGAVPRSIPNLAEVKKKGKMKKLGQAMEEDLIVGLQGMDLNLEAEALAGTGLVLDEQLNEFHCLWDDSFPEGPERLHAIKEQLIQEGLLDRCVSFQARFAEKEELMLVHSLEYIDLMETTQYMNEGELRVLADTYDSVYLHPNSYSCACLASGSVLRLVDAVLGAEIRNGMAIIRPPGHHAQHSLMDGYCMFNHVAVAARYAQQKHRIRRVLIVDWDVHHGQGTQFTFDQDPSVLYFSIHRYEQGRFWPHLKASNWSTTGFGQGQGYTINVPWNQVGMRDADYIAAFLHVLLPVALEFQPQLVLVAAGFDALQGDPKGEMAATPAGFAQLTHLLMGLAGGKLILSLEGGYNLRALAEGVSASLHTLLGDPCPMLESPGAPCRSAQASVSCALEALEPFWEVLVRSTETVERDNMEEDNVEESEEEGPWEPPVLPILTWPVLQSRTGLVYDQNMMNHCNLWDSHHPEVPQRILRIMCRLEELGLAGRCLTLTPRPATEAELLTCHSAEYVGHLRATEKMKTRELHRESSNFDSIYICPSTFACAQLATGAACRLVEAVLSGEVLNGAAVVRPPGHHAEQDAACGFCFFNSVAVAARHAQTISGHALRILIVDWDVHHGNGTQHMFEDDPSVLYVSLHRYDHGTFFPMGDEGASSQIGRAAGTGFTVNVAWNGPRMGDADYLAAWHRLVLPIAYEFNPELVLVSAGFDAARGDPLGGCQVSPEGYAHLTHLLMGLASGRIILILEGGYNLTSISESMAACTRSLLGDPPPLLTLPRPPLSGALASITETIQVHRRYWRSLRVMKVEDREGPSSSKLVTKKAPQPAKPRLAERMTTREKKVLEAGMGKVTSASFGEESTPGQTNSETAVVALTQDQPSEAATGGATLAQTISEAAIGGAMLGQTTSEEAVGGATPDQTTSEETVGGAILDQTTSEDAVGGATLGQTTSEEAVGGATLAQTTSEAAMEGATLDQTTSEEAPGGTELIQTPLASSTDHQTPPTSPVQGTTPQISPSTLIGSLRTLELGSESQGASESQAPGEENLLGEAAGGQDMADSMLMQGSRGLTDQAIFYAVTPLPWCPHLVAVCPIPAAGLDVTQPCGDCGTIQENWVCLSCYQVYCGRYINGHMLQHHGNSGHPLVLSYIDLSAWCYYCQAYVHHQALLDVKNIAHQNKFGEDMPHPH

MCF7 = assay: cells; format: functional, cell-based; details: Homo sapiens
Vero = assay: cells; format: ADME, cell-based; details: Chlorocebus sabaeus
RWPE-1 = assay: cells; format: ADME, cell-based; details: Homo sapiens
PC-3 = assay: cells; format: functional, cell-based; details: Homo sapiens
MDA-MB-231 = assay: cells; details: Homo sapiens
Histone deacetylase [6] = format: cell-based, Homo sapiens; details: hela
Histone deacetylase [7] = format: cell-based, Homo sapiens; details: hela; remark: listed apart in the source
Histone deacetylase 1 [8] = target: T1, Histone deacetylase 1; assay: Inhibition of recombinant human GST-fused HDAC1 expressed in HEK293 cells Fluor-de-lys as substrate measured after 60 mins by fluorescence assay
[9] = target: T4, Protein deacetylase HDAC6; assay: Inhibition of recombinant human His-tagged HDAC6 expressed in baculovirus infected insect cells using Fluor-de-lys as substrate measured after 60 mins by fluorescence assay

SMILES: Nc1cccc(-c2csc(NC(=O)CCCCCCC(=O)Nc3ccccc3N)n2)c1
IC50 (Histone deacetylase 1 [3]): 2.49 µM
IC50 (Histone deacetylase 2): 0.147 µM
IC50 (Histone deacetylase 8): > 30 µM
IC50 [4]: 2.91 µM
IC50 [5]: > 30 µM

SMILES: CC1(C)C(=O)N(c2ccc(C#N)c(C(F)(F)F)c2)C(=O)N1CCCCc1cn(CCCCCCC(=O)NO)nn1
IC50 (MCF7): 14.6 µM
IC50 (Vero): > 20 µM
IC50 (RWPE-1): 12.1 µM
IC50 (PC-3): 15.7 µM
IC50 (MDA-MB-231): > 20 µM

SMILES: Nc1ccccc1NC(=O)CCCCCCC(=O)Nc1ccc(-c2cn(Cc3ccccc3)nn2)cc1
IC50 (Histone deacetylase 1 [3]): > 30 µM
IC50 (Histone deacetylase 2): > 30 µM
IC50 (Histone deacetylase 8): > 30 µM
IC50 [4]: > 30 µM
IC50 [5]: > 30 µM

Other lines, results leading:

inhibition (Histone deacetylase 1 [1]): 21 to 34%
inhibition [2]: < 12%
SMILES: O=C(Nc1cc(-c2ccccc2)ccc1O)c1c(-c2ccc(O)cc2)sc2cc(O)ccc12

IC50 (Histone deacetylase [6]): 0.234 µM
IC50 (Histone deacetylase [7]): 0.132 µM
IC50 (Histone deacetylase 1 [8]): 0.028 µM
IC50 [9]: 0.107 µM
SMILES: CCn1cnc(-c2ccccc2)c1-c1ccc(/C=C/C(=O)NO)cc1
